Measurements: patent publication US20040029965A1, “Formulations for reducing or eliminating toxicity of enviromental hormones containing ursodeoxycholic acid” (priority 2000, published 2004)

System: Ovariectomized female B6C3F1 mice
Assay: Uterus weight changes by bisphenol A (uterine proliferation)
Format: in vivo
Description: Ovariectomized female B6C3F1 mice of 5 weeks old, the average weight of which was 18 to 22 g and had been bred in CRJ, were purchased. They were acclimated under the constant breeding conditions, i.e. the constant temperature of 24±1° C., the humidity of 60±10% and the light and darkness cycle of 12 hours, for one week and then, utilized in the experiment. The animals were supplied with solid feed purchased from Purina and supplied with water ad libitum. After acclimation, test materials dissolved in corn oil were subcutaneously injected once a day for 4 days. The test materials used herein, stock solutions of bisphenol A and UDCA were prepared using ethanol. 2 mg of bisphenol A dissolved in 0.2 ml of corn oil was administered to the mice alone or in combination with UDCA once a day. The administration dose of UDCA was 0.2 or 2.0 mg, and corn oil was administered to the solvent control.
The results are expressed as Mean±Standard Deviation values. ANOVA was performed to evaluate the mean distribution of administered groups. In case that the significance was recognized in ANOVA, the Student's t-test was carried out in the levels of p<0.05 and p<0.01.

With `CC(C)(c1ccc(O)cc1)c1ccc(O)cc1` [Bisphenol A, bisphenol A] the “increase of the weight of uterus” value (2 mg of bisphenol A once a day, versus corn oil control) was “about two-fold increased” and the “Mean weight of uterus ± SD” value (Bisphenol A 2 mg/day s.c. for 4 days, alone) was 13.5 ± 1.75.
